According to patent US20130115589A1, “Pharmaceutical Composition for Treatment and Prevention of Herpes Virus Infections” (THE UNIVERSITY OF TOKYO, priority 2010, published 2013):
Read-outs that look alike come from different tables or passages of the source.

Assays:
HSV-1 GFP [1] = format: cell-based, Herpes simplex virus 1 (HSV-1); conditions: for HSV entry into Vero cells (relative fluorescence intensity): 30 minutes pretreatment, ML-7 20 μM, ACC 40 μM
influenza virus [2] = format: cell-based
HSV-1 GFP [3] = format: cell-based, Herpes simplex virus 1 (HSV-1)
influenza virus [4] = format: cell-based; remark: listed apart in the source
HSV-1(F) = assay: Murine corneal infection model; format: in vivo, ICR mice
Description: After the cornea of ICR mice (female/5-week-old) was slightly injured with an injection needle, a medium containing or not containing 20 μM ML-7 was instilled in the eye twice with an interval of 10 minutes. After incubation for 10 minutes, an HSV-1(F) strain was inoculated at 5×10^5 PFU/eye. The virus titer in the tear, symptoms of keratitis, and survival of mice were studied.
After the cornea of 28 ICR mice (female/5-week-old) per group was injured with an injection needle, a 20 μM medium containing or not containing ML-7 and 5×10^5 HSV-1(F) diluted in Medium199 were simultaneously instilled in their eye, followed by observation for 21 days.
After the cornea of 28 ICR mice (female/5-week-old) per group was injured with an injection needle, a 50 μM BAPTA-AM was instilled in their eye twice with an interval of 10 minutes. After incubation for 10 minutes, 5×10^5 HSV-1(F) diluted in Medium 199 was instilled in their eye, followed by observation for 21 days. In Mock-treated group, 0.2% DMSO in Medium 199 was used instead of 50 μM BAPTA-AM.

NMHC-IIA = format: cell-based; conditions: Vero cells pretreated with ML-7
HSV-2 GFP = HSV-2 GFP infection of Vero cells, flow cytometry; format: cell-based, Herpes simplex virus 2; conditions: Vero cells pretreated with ML-7
phosphorylation of RLC = assay: Phosphorylation of RLC in Vero cells exposed to HSV-1, immunoblotting; conditions: 20 μM ML-7, MOI=50
NMHC-IIB = NMHC-IIB at the cell surface of HSV-1(F)-infected Cos-1 cells, biotinylation, avidin precipitation, immunoblotting; conditions: Cos-1 cells pretreated with ML-7, wild-type HSV-1(F)

CC(=O)OCOC(=O)CN(CC(=O)OCOC(C)=O)c1ccccc1OCCOc1ccccc1N(CC(=O)OCOC(C)=O)CC(=O)OCOC(C)=O [BAPTA-AM]
mean fluorescence intensity (MFI), HSV-1 GFP (HSV-1 GFP [1]): decreased in a BAPTA-AM concentration dependent manner
relative MFI, influenza virus (influenza virus [2]): not influenced
MFI, HSV-1 GFP (HSV-1 GFP [3]): decreased in a BAPTA-AM concentration dependent manner
influence on influenza virus infection (influenza virus [4]; Cos-1 cells, BAPTA-AM): not observed
survival rate (HSV-1(F); 50 μM BAPTA-AM instilled before infection, observation 21 days, vs Mock-treated group): significantly high

Nc1nc2c(ncn2COCCO)c(=O)[nH]1 [ACC, acyclovir]
HSV entry into Vero cells (relative fluorescence intensity) (HSV-1 GFP [1]; HSV-1 GFP MOI=1, six hours after infection): not inhibited

O=S(=O)(c1cccc2c(I)cccc12)N1CCCNCC1 [ML-7]
Infection with HSV-1 GFP (HSV-1 GFP [1]): inhibited dose-dependently
HSV entry into Vero cells (relative fluorescence intensity) (HSV-1 GFP [1]; […]): inhibited
influenza virus infection (influenza virus [2]; Vero cells pretreated with ML-7): not influenced
increase in the concentration of NMHC-IIA in the vicinity of the cell membrane upon virus entry (NMHC-IIA): inhibited
HSV-1 infection (HSV-1 GFP [3]): dose-independently inhibited
influenza virus infection (influenza virus [4]; Cos-1 cells pretreated with ML-7): not influenced
HSV-2 GFP infection (HSV-2 GFP): dose-independently inhibited
survival rate of mice (HSV-1(F); 20 μM ML-7 instilled before infection): significant increase
symptoms of keratitis (HSV-1(F); 20 μM ML-7 instilled before infection, after five days, vs untreated mice): significant decrease
virus titer in the tear (HSV-1(F); 20 μM ML-7 instilled before infection, two days after virus inoculation, vs untreated mice): significant decrease
survival rate of mice (HSV-1(F); 20 μM ML-7 instilled simultaneously with HSV-1(F), observation 21 days): further significant increase
enhancement of phosphorylation of RLC by HSV-1 infection (phosphorylation of RLC): inhibits this enhancement
concentration of NMHC-IIB in the vicinity of the cell membrane (NMHC-IIB): decreased significantly
